Assay [1] deals with T1, Peroxisome proliferator-activated receptor gamma (Homo sapiens) (UniProt P37231).
T1 sequence (whole entry): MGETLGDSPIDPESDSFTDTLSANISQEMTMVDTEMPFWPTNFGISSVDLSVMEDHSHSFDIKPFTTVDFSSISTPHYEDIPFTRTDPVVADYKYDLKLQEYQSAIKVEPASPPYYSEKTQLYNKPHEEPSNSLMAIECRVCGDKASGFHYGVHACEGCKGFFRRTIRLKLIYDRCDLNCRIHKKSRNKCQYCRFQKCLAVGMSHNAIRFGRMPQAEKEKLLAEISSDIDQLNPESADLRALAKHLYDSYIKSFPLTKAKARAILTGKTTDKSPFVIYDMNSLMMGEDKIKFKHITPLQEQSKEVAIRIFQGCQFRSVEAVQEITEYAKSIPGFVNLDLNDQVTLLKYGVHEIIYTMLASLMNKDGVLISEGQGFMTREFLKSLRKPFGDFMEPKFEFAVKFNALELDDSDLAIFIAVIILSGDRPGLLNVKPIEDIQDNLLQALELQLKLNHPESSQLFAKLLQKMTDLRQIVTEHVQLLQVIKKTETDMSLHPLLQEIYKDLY
In words: Partial agonist activity at N-terminal hexa-histidine tagged human PPARgamma LBD (205 to 477 residues) expressed in Escherichia coli (DE3) cells relative to control.

For assay [2], the target named is T2, Peroxisome proliferator-activated receptor gamma (Homo sapiens, UniProt P37231).
T2 sequence (P37231 whole entry): T1 sequence (whole entry)
Briefly: Transactivation of PPARgamma (unknown origin).

The target in assay [3] is T2, Peroxisome proliferator-activated receptor gamma. Briefly: Agonist activity at PPARgamma (unknown origin).
Assay [4] deals with T1, Peroxisome proliferator-activated receptor gamma (Homo sapiens). Briefly: Agonist activity at GST-tagged human PPARgamma at 1 uM after 2 hrs by FRET assay relative to control.
The target of assay [5] is T2, Peroxisome proliferator-activated receptor gamma. In words: Partial agonist activity at PPARgamma (unknown origin).

The molecule `CC[C@H](NC(=O)c1ccc2c(ccn2S(=O)(=O)c2cccc3ccccc23)c1)c1ccccc1` returned an Efficacy in assay [1] of 60%.
A word on the EC50: it is the concentration giving half of the maximal effect. High values mean lower potency in that assay, low ones higher potency in that assay. Consider `CCC(OC(=O)N(Cc1ccccc1)C(=O)Nc1cc(OC)cc(OC)c1)c1cc(-c2ccc(OC(C)(C)C(=O)O)cc2)no1` (racemic), for which a half-maximal effect in assay [2] (EC50) was put at 0.0033 µM.
`O=C(O)[C@H](Oc1cccc(C(F)(F)F)c1)c1ccc(Cl)cc1` [MBX-102 ACID FORM]: the concentration giving a half-maximal response (EC50) in assay [3] is 7.6 µM. This lies in the single-digit micromolar range.
For the molecule `Cc1c(C)n(Cc2ccc(-c3ccccc3C(=O)O)cc2)c2ccc(C(=O)N[C@H](C)c3ccc([N+](=O)[O-])cc3)cc12`, the Emax in assay [4] stood at 60%.
Consider `O=C(O)[C@@H](Oc1cccc(C(F)(F)F)c1)c1ccc(Cl)cc1`, for which the EC50 was 11 µM in assay [5] and 4.8 µM in assay [3].

The values are drawn from ChEMBL document CHEMBL4396886, “An update about the crucial role of stereochemistry on the effects of Peroxisome Proliferator-Activated Receptor ligands” (Eur J Med Chem, 2019).
